In US12421257B2, “Compositions and methods for inhibiting group II intron RNA” (YALE UNIVERSITY, priority 2018, dated 2025):
In brackets after ≈: the same amount, converted by molar mass.

What was measured:
C. parapsilosis = assay: MIC determination against C. parapsilosis; assay type: cell-based, Candida parapsilosis; conditions: Lodderomyces parapsilosis; RPMI-1640, 35° C. or 37° C., turbidity after 24 and 48 hours
Procedure: Minimal inhibitory concentrations (MICs) for C. parapsilosis were determined in a final volume of 100 μl. Fresh stock solutions of control antifungal drugs (Amphotericin B and Itraconazole) and of test compounds were prepared at 3.2 mg/ml and at 12.8 mg/ml respectively in DMSO. After placing the stock in the first well, solutions of test compounds and antifungal controls were serially diluted 1:2 with DMSO into the first […] successive wells of a 12-well row on a 96-well plate (as described above). After dilution, 2.5 μl from each of these 10 wells were transferred onto a separate 96-well plate and diluted with 122.5 μl of RPMI-1640 medium (Sigma). Wells 11 and 12 contained 2.5 μl DMSO and 122.5 μl of RPMI-1640 as a positive growth control (no compound) and sterility control (no inoculum added). A 50 μl volume was taken from each of the RPMI dilutions (wells 1-12) and transferred to the wells of a third 96-well plate (assay plate), where they were mixed with an equal volume (50 μl) of freshly prepared inoculum of C. parapsilosis in RPMI-1640 medium, set at a density to provide the 0.5×10^3 to 2.5×10^3 colony forming units per 1 mL (except for the sterility control). Sterility control was mixed with 50 μl of sterile medium.
The final concentration range of the assay was 0.25-128 μg/ml for test compounds and 0.0625-32 μg/ml for Amphotericin B and Itraconazole. The final concentration of DMSO was 1%. The assay plate was incubated at 35° C. or 37° C. and visually analyzed for turbidity after 24 and 48 hours of incubation. The lowest compound concentration at which no growth was apparent is reported as the MIC. All experiments were performed in triplicate.

[1] = test system: ai5γ group II intron (D135 ribozyme); assay: Fluorescent D135 ribozyme cleavage assay (IC50); assay type: biochemical, Saccharomyces cerevisiae; conditions: D135 ribozyme cleavage of substrate 17/2 DL, 100 mM MgCl2, 500 mM KCl, 37° C., 10 minutes
Procedure: The D135 ribozyme (Su et al., 2005, Nucleic Acids Res, 33:6674-6687), fluorescently labeled oligo substrate 17/2 DL (FIG. 1A-FIG. 1D) (both at 20 nM final concentrations in 50 mM MOPS, pH 7.0, 100 mM MgCl2, 0.5M KCl), and the test compounds (final concentration of 10 μM in 50 mM MOPS, pH 7.0, 100 mM MgCl2, 0.5M KCl) were aliquoted onto black non-binding 384-well plates (Corning 3757) using the multidrop combi (ThermoFisherScientific) and pintool (V & P Scientific). The reaction mixtures were incubated at 37° C. for 45 minutes, then the reaction was quenched with 100 mM EDTA and fluorescence intensity was analyzed on a Tecan Infinite multimode plate reader (λex 520 nm, λem 560 nm, 5 nm bandwidth). Data were normalized to untreated wells and wells lacking the D135 ribozyme, and percent of inhibition was calculated using ActivityBase (IDBS). The Z′-factor was calculated as described (Zhang et al., 1999, J Biomol Screen, 4:67-73): Z′=1−3×(σp+σn)/|μp−μn|, • where μp and σn are mean value and standard deviation for the positive control (substrate only), and where μn and σn are mean value and standard deviation for the negative control (no compound). The average Z′-factor from the screen was 0.83±0.03. IC50 Measurement for the Small Molecule Inhibition of the D135 Ribozyme Cleavage Reaction.
Black 96-well plates (Corning 3695) were filled with 50 μl of solution containing 20 nM D135 ribozyme, 20 nM double-labeled substrate 17/2 DL and small molecule inhibitor in 50 mM MOPS, pH 7.0, 100 mM MgCl2 and 500 mM KCl. Small molecule inhibitors were tested at 19 different concentrations ranging from 5 nM to 1 mM. Plates were incubated at 37° C. for 10 minutes, then reaction mixtures were quenched with 100 mM EDTA and analyzed on the Synergy H1 plate reader (BioTek). Each experiment was performed in triplicate. Data were fit to a 4-parameter logistic function c+(d−c)/(1+(x/a)^b), where a is the IC50, b is the slope parameter, c is the minimum response and d is the maximum response. Data are reported as average±s.e.m

HEK-293T cells = assay: Cytotoxicity in HEK-293T cells (Cell Titer Glo); assay type: cell-based, human; conditions: Homo sapiens, cytotoxicity, 24 hours with compound, read-out: IC50 HEK-293
Procedure: HEK-293T cells were cultured in Dulbecco's Modified Eagle's Medium (DMEM) (Gibco) supplemented with 10% Fetal Bovine Serum (FBS, Gibco) and 100 U/ml of Penicillin-Streptomycin (Gibco) at 37° C. and 5% CO2. For the cytotoxicity experiments, cells were aliquoted into black 96-well plates with a clear bottom (Corning 3603) at a concentration of 10,000 cells per well. The cells were grown at 37° C., 5% CO2 for 5-6 hours, then the medium was replaced with the same medium without FBS and cells were grown at 37° C., 5% CO2 for 24 hours. Freshly prepared stock solutions of test compounds (12.8 mg/ml in DMSO) were serially diluted 1:2 with DMSO into the first 11 successive wells of a 12-well row on a 96-well plate as described above. Well 12 was used as a growth control (no compound). […] After incubation, cell viability was determined using the luminescent Cell Titer Glo cell viability assay (Promega), in which 100 μl of the assay reagent was added to each well of the assay plate. After gentle shaking for 7-10 minutes, the plates were analyzed on a Synergy H1 plate reader (BioTek). Luminescence was plotted against the compound concentration and IC50 values were determined by fitting the data to a 4-parameter logistic function c+(d−c)/(1+(x/a)^b), where a is the IC50, b is the slope parameter, c is the minimum response and d is the maximum response. Experiments were replicated to ensure reproducibility.

ai5γ group II intron = assay: Radioanalytic self-splicing assay of SE RNA (Ki); assay type: biochemical, Saccharomyces cerevisiae; conditions: 8 mM MgCl2, 100 mM KCl, pH 7.5, 30° C.
Procedure: Internally labeled SE RNA (2 nM) was incubated with various concentrations of inhibitor compound under near-physiological conditions (in 50 mM MOPS, pH 7.5, 8 mM MgCl2, 100 mM KCl) at 30° C. Aliquots at different time points were quenched and analyzed on 5% denaturing polyacrylamide gel as previously described (Daniels et al., 1996, Journal of molecular biology, 256:31-49). Data were fit to a single-exponential equation to determine the first order rate constants (kobs). The latter were then plotted against the concentration of the inhibitor and fit to the equation for non-competitive inhibition to determine Ki values: kobs=kmax/(1+[I]/Ki), where kobs and kmax are the first order rate constants measured in the presence and in the absence of the inhibitor, respectively, [I] is the concentration of the inhibitor and Ki is the inhibition constant. Experiments were performed four times for API-014, three times for APY-090, Intronistat A, and Intronistat B and twice for the remaining compounds to ensure reproducibility. Data represent average±s.e.m.

O=C(c1ccc([N+](=O)[O-])cc1)c1cc2cc(-c3ccc(CO)cc3)ccc2o1 [APY-100]
MIC (C. parapsilosis): > 128 µg/mL | IC50 [1]: > 1000 µM | IC50 (HEK-293T cells): > 128 µg/mL

COc1cccc(/C=N/NC(=O)c2ccc(O)c(O)c2)c1O [APY-054]
MIC (C. parapsilosis): > 128 µg/mL | IC50 [1]: > 500 µM | IC50 (HEK-293T cells): > 64 µg/mL

O=C(c1cc(O)c(O)c(O)c1)N1CCN(c2ccccc2)CC1 [NED-2015]
MIC (C. parapsilosis): 16 to 32 µg/mL (≈ 50.9 to 102 µM) | IC50 [1]: > 1000 µM | IC50 (HEK-293T cells): 4.4 µg/mL

CS(=O)(=O)c1ccc(C(=O)c2cc3cc(-c4ccc(CO)cc4)ccc3o2)cc1 [APY-099]
MIC (C. parapsilosis): > 128 µg/mL | IC50 [1]: > 1000 µM | IC50 (HEK-293T cells): 8.2 µg/mL

Oc1cc(-c2csc(-c3ccc(Cl)cc3)n2)cc(O)c1O [NED-2014]
MIC (C. parapsilosis): 8 µg/mL (≈ 25 µM) | IC50 [1]: 46 ± 2 µM | IC50 (HEK-293T cells): 0.6 µg/mL

O=C(N/N=C/c1ccc(O)cc1)c1cc(O)c(O)c(O)c1 [APY-032]
MIC (C. parapsilosis): 8 µg/mL (≈ 27.8 µM) | IC50 [1]: 10.6 µM | IC50 (HEK-293T cells): 4.14 µg/mL

COc1ccc(/C=N/NC(=O)c2cc(O)c(O)c(O)c2)c(OC)c1 [NED-2036, N′-(2,4-dimethoxybenzylidene)-3,4,5-trihydroxybenzohydrazide]
MIC (C. parapsilosis): 8 µg/mL (≈ 24.1 µM) | IC50 [1]: 14 ± 1 µM | IC50 (HEK-293T cells): 8.2 µg/mL

COc1cc(/C=C2\Oc3cc(O)cc(O)c3C2=O)cc(OC)c1OC [APY-003]
MIC (C. parapsilosis): > 128 µg/mL | IC50 [1]: > 500 µM | IC50 (HEK-293T cells): > 64 µg/mL

O=C1/C(=C/c2ccc(B(O)O)cc2)Oc2cc(O)cc(O)c21 [APY-006]
Ki (ai5γ group II intron): 55 µM

O=C(c1cc(O)c(O)c(O)c1)N1CCc2ccccc2C1 [APY-085]
MIC (C. parapsilosis): 32 µg/mL (≈ 112 µM) | IC50 [1]: 6.4 µM | IC50 (HEK-293T cells): 18.7 µg/mL

O=C(c1cc(O)c(O)c(O)c1)N1CCC(c2noc3cc(F)ccc23)CC1 [APY-088]
MIC (C. parapsilosis): 16 µg/mL (≈ 43 µM) | IC50 [1]: 24 µM | IC50 (HEK-293T cells): 6.55 µg/mL

COc1cccc(/C=N/NC(=O)c2ccc(B(O)O)cc2)c1O [APY-018]
Ki (ai5γ group II intron): 660 µM

O=C1/C(=C/c2cc(O)c(O)c(O)c2)Oc2cc(O)cc(O)c21 [Compound 1, reference compound]
IC50 [1]: 2.3 ± 0.4 µM | IC50 ([1]; listed as compound 1): 2 µM | Ki (ai5γ group II intron): 2.1 ± 0.6 µM

O=C(N/N=C/c1cccc(O)c1O)c1cc(O)c(O)c(O)c1 [APY-037]
MIC (C. parapsilosis): 8 µg/mL (≈ 26.3 µM) | IC50 [1]: 3.7 µM | IC50 (HEK-293T cells): 5.4 µg/mL

O=C(N/N=C/c1cccc(O)c1)c1cc(O)c(O)c(O)c1 [APY-040]
MIC (C. parapsilosis): 8 µg/mL (≈ 27.8 µM) | IC50 [1]: 9.9 µM | IC50 (HEK-293T cells): 30.1 µg/mL

Cc1[nH]c(/C=C/C(=O)c2cc(O)c(O)c(O)c2)c(C)c1C(=O)N1CCN(Cc2ccc(F)cc2)CC1 [NED-2040]
MIC (C. parapsilosis): 8 µg/mL (≈ 16.2 µM) | IC50 [1]: > 1000 µM | IC50 (HEK-293T cells): 7.5 µg/mL

COc1ccc(/C=C/C=N/NC(=O)c2cc(O)c(O)c(O)c2)cc1 [APY-058]
MIC (C. parapsilosis): 4 µg/mL (≈ 12.2 µM) | IC50 [1]: 10.1 µM | IC50 (HEK-293T cells): 23 µg/mL

COc1ccc2ccccc2c1/C=N/NC(=O)c1cc(O)c(O)c(O)c1 [NED-2173, (E)-3,4,5-trihydroxy-N′-((2-methoxynaphthalen-1-yl)methylene)benzohydrazide]
MIC (C. parapsilosis): 8 µg/mL (≈ 22.7 µM) | IC50 [1]: 6 ± 1 µM | IC50 (HEK-293T cells): 8.6 µg/mL

O=C(N/N=C/c1ccc(O)c(Cl)c1)c1cc(O)c(O)c(O)c1 [APY-034]
MIC (C. parapsilosis): 8 µg/mL (≈ 24.8 µM) | IC50 [1]: 4.7 µM | IC50 (HEK-293T cells): 54.5 µg/mL

O=C(Nc1cc(O)c(O)c(O)c1)N1CCN(c2ccc(Cl)c(Cl)c2)CC1 [NED-2035]
MIC (C. parapsilosis): > 128 µg/mL | IC50 [1]: 55 ± 4 µM | IC50 (HEK-293T cells): 1.6 µg/mL

CCCCNc1nc(-c2cc(O)c(O)c(O)c2)cs1 [NED-2034]
MIC (C. parapsilosis): 8 to 16 µg/mL (≈ 28.5 to 57.1 µM) | IC50 [1]: > 1000 µM | IC50 (HEK-293T cells): 22 µg/mL

O=C(c1cc(O)c(O)c(O)c1)N1CCC(c2ccccc2)CC1 [APY-087]
MIC (C. parapsilosis): 32 µg/mL (≈ 102 µM) | IC50 [1]: 79 µM | IC50 (HEK-293T cells): 8.4 µg/mL

Oc1cc(-c2nc3ccc(C(F)(F)F)cc3s2)cc(O)c1O [NED-2016]
MIC (C. parapsilosis): 4 µg/mL (≈ 12.2 µM) | IC50 [1]: > 1000 µM | IC50 (HEK-293T cells): 1.5 µg/mL

COc1ccc(/C=N/NC(=O)c2cc(O)c(O)c(O)c2)cc1OC [APY-041]
MIC (C. parapsilosis): 8 µg/mL (≈ 24.1 µM) | IC50 [1]: 3.8 µM | IC50 (HEK-293T cells): 49.5 µg/mL

O=C(N/N=C/c1c(O)ccc2ccccc12)c1cc(O)c(O)c(O)c1 [NED-2037, (E)-3,4,5-trihydroxy-N′-((2-hydroxynaphthalen-1-yl)methylene)benzohydrazide]
MIC (C. parapsilosis): 16 µg/mL (≈ 47.3 µM) | IC50 [1]: 1.8 ± 0.5 µM | IC50 (HEK-293T cells): 2.8 µg/mL

O=C(N/N=C/c1ccc2ccccc2c1)c1cc(O)c(O)c(O)c1 [NED-2135, (E)-3,4,5-trihydroxy-N′-(naphthalen-2-ylmethylene)benzohydrazide]
MIC (C. parapsilosis): 2 µg/mL (≈ 6.21 µM) | IC50 [1]: 0.8 ± 0.2 µM | IC50 (HEK-293T cells): 2.4 µg/mL
